From US20260053731A1, “MICRONEEDLE PARTICLES FOR ENHANCED TOPICAL TRANSDERMAL DRUG DELIVERY” (BONSENS AB, priority 2023, published 2026)

Experiment: Adverse effects of daily treatment in tumor-bearing mice (weight, skin histology)
Type: in vivo, hairless NMRI Nude mice
Description: For hematoxylin/eosin staining (H&E), skin was isolated, immediately fixed in PFA (4% paraformaldehyde in PBS) overnight at room temperature, and then transferred to 70% ethanol prior to paraffin embedding and sectioning. Then, skin sections (8 μm) were stained with hematoxylin for 3 min after rehydration, rinsed for 10 min in running tap water and then stained for 1 min in eosin solution before being mounted on Fluoromount (DAKO). Whole slide pictures were taken by Olympus Slide View VS200 at Histological Core facility—HistoCore, Karolinska Institutet, Sweden, processed, and analyzed by OlyVIA software.
The mice were monitored for signs of discomfort (hunched posture, immobility, >10% weight loss) throughout the duration of the experiment as per ethics application.
In vivo experimentation was performed by inducing subcutaneous GTML2 tumors in mice through injecting a Tet-Off transgenic doxycycline-dependent murine cell line 40 into the flanks. […] Mice were monitored daily and were visualized with IVIS under tumor suspicion. […] Tumors were monitored and measured by IVIS imaging and by vernier calliper every week until the end of the experimentation. When measuring using a Vernier calliper, tumor volumes were calculated from the ellipsoid formula: V=4/3 πWLD. […]

Compound: C[C@H]1c2cccc(O)c2C(=O)C2=C(O)[C@]3(O)C(=O)C(C(N)=O)=C(O)[C@@H](N(C)C)[C@@H]3[C@@H](O)[C@@H]21 [Doxycycline, doxycycline]
- weight of mice (long term oral doxycycline in drinking water, compared to plain water control group): slower increase in their weight
- weight of mice (topical skin treatment, 11 weeks): did not alter the weight of the mice
